From patent US9243002B2, “Tetracyclic heterocycle compounds and methods of use thereof for the treatment of hepatitis C” (priority 2013, dated 2016)
Where two headings read alike, the source gives them in different places.

Experiments:
HCV genotype 1b replicon = assay: HCV replicon assay, genotype 1b (cell ELISA for NS3/4A); format: cell-based, hepatitis C virus
Protocol: (§1) Measurement of inhibition by compounds was performed using the HCV replicon system. Several different replicons encoding different HCV genotypes or mutations were used. In addition, potency measurements were made using different formats of the replicon assay, including different ways of measurements and different plating formats. See Jan M. Vrolijk et al., A replicons-based bioassay for the measurement of interferons in patients with chronic hepatitis C, 110 J. VIROLOGICAL METHODS 201 (2003); Steven S. Carroll et al., Inhibition of Hepatitis C Virus RNA Replication by 2′-Modified Nucleoside Analogs, 278 (14) J. BIOLOGICAL CHEMISTRY 11979 (2003). However, the underlying principles are common to all of these determinations, and are outlined below.
(§2) Stable neomycin phosphotransferase encoding replicons-harboring cell lines were used, so all cell lines were maintained under G418 selection prior to the assay. Potency was deteremined using a cell ELISA assay with an antibody to the replicons encoded NS3/4a protease. See Caterina Trozzi et al., In Vitro Selection and Characterization of Hepatitis C Virus Serine Protease Variants Resistant to an Active-Site Peptide Inhibitor, 77 (6) J. Virol. 3669 (2003). To initiate an assay, replicon cells were plated in the presence of a dilution series of test compound in the absence of G418. Typically, the assays were performed in a 96-well plate formate for manual operation, or a 384-well plate format for automated assay. Replicon cells and compound were incubated for 96 hours. At the end of the assay, cells were washed free of media and compound, and the cells were then lysed. RNA was quantified indirectly through detection of replicon-encoded NS3/4A protein levels, through an ELISA-based assay with an antibody specific for NS3/4A. IC50 determinations were calculated as a percentage of a DMSO control by fitting the data to a four-parameter fit function and the data obtained for genotypes 1a and 1b using this method is provided in the table below.

HCV genotype 1a replicon = assay: HCV replicon assay, genotype 1a (cell ELISA for NS3/4A); format: cell-based, hepatitis C virus
Protocol: as §1, §2

[1] = Hepatitis C virus, 96 h, read-out: 1b IC50 (nM), genotype 1b replicon cells, 96 hours incubation, NS3/4A ELISA
[2] = Hepatitis C virus, 96 h, read-out: 1a IC50 (nM), genotype 1a replicon cells, 96 hours incubation, NS3/4A ELISA
[3] = read-out: 1b IC50, genotype 1b replicon cells, 96 hours incubation, NS3/4A ELISA
[4] = read-out: 1a IC50, genotype 1a replicon cells, 96 hours incubation, NS3/4A ELISA

Compound	IC50 (HCV genotype 1b replicon; [1])	IC50 (HCV genotype 1a replicon; [2])	also measured
CNC(=O)c1c(-c2ccc(F)cc2C#N)oc2cc(N(C)S(C)(=O)=O)c(-c3ccc4c(n3)-c3cc5c(F)cccc5n3CC4)cc12 [Example 13]	16.5 nM	17.3 nM	
CNC(=O)c1c(-c2cnc(C)c(F)c2)oc2cc(N(C)S(C)(=O)=O)c(-c3ccc4c(n3)-c3cc5c(F)cccc5n3CC4)cc12 [Example 14]	24.3 nM	26.4 nM	
CNC(=O)c1c(-c2ccc(C(F)F)nc2)oc2cc(N(C)S(C)(=O)=O)c(-c3ccc4c(n3)-c3cc5c(F)cccc5n3CC4)cc12 [Example 3]	6.69 nM	7.94 nM	
CNC(=O)c1c(-c2ccc(OC3CC3)nc2)oc2cc(N(C)S(C)(=O)=O)c(-c3ccc4c(n3)-c3cc5c(F)cccc5n3CC4)cc12 [Example 5]	2.3 nM	3.86 nM	
CNC(=O)c1c(-c2ccn[nH]2)oc2cc(N(C)S(C)(=O)=O)c(-c3ccc4c(n3)-c3cc5c(F)cccc5n3CC4)cc12 [Example 25]	99.4 nM	287 nM	
CNC(=O)c1c(-c2ccc(F)cc2)oc2cc(N(C)S(C)(=O)=O)c(-c3ccc4c(n3)-c3cc5c(F)cccc5n3C(=O)CC4)cc12 [Example 74, 5-(12-fluoro-7-oxo-6,7-dihydro-5H-pyrido[2′,3′:3,4]azepino[1,2-a]indol-2-yl)-2-(4-fluorophenyl)-N-methyl-6-(N-methylmethylsulfonamido)benzofuran-3-carboxamide]	11.4 nM	8.2 nM	
CNC(=O)c1c(-c2cnc(C(C)(C)O)s2)oc2cc(N(C)S(C)(=O)=O)c(-c3ccc4c(n3)-c3cc5c(F)cccc5n3CC4)cc12 [Example 20]	129 nM	680 nM	
CNC(=O)c1c(-c2ccc(F)cc2F)oc2cc(N(C)S(C)(=O)=O)c(-c3ccc4c(n3)-c3cc5c(F)cccc5n3C(CS(C)(=O)=O)C4)cc12 (stereo not drawn) [Example 59]			IC50 (HCV genotype 1b replicon; [3]): 2.9 nM; IC50 (HCV genotype 1a replicon; [4]): 5.45 nM
CNC(=O)c1c(-c2ccc(C(F)F)cc2)oc2cc(N(C)S(C)(=O)=O)c(-c3ccc4c(n3)-c3cc5c(F)cccc5n3CC4)cc12 [Example 29, 2-(4-(difluoromethyl)phenyl)-5-(11-fluoro-5,6-dihydroindolo[1,2-h][1,7]naphthyridin-2-yl)-N-methyl-6-(N-methylmethylsulfonamido)benzofuran-3-carboxamide]	15.5 nM	13.5 nM	
CNC(=O)c1c(-c2ccc(F)cc2F)oc2cc(N(C)S(C)(=O)=O)c(-c3ccc4c(n3)-c3cc5c(F)cccc5n3C(CS(C)(=O)=O)C4)cc12 (stereo not drawn) [Example 58]	1.71 nM		IC50 (HCV genotype 1a replicon; [4]): 1.52 nM
CNC(=O)c1c(-c2ccc(F)cc2)oc2cc(N(C)S(C)(=O)=O)c(-c3ccc4ccn5c6cccc(F)c6cc5c4n3)cc12 [Example 82, 5-(11-fluoroindolo[1,2-h][1,7]naphthyridin-2-yl)-2-(4-fluorophenyl)-N-methyl-6-(N-methylmethylsulfonamido)benzofuran-3-carboxamide]	5.54 nM	2.88 nM	
CCc1ncc(-c2oc3cc(N(C)S(C)(=O)=O)c(-c4ccc5c(n4)-c4cc6c(F)cccc6n4CC5)cc3c2C(=O)NC)s1 [Example 38]	17 nM	21.8 nM	
CNC(=O)c1c(-c2ccc(F)cc2)oc2nc(N(C)S(C)(=O)=O)c(-c3ccc4c(n3)-c3cc5c(F)cccc5n3CC4)cc12 [Example 45, 5-(11-fluoro-5,6-dihydroindolo[1,2-h][1,7]naphthyridin-2-yl)-2-(4-fluorophenyl)-N-methyl-6-(N-methylmethylsulfonamido)furo[2,3-b]pyridine-3-carboxamide]	8.72 nM	4.29 nM	
CNC(=O)c1c(-c2ccc(F)cc2)oc2cc(N(C)S(C)(=O)=O)c(-c3ccc4c(n3)-c3cc5c(F)cccc5n3CCCC4)cc12 [Example 99, 5-(13-fluoro-5,6,7,8-tetrahydropyrido[2′,3′:3,4]azocino[1,2-a]indol-2-yl)-2-(4-fluorophenyl)-N-methyl-6-(N-methylmethylsulfonamido)benzofuran-3-carboxamide]	7.17 nM	6.5 nM	
CNC(=O)c1c2cc(-c3ccc4c(n3)-c3cc5c(F)cccc5n3CC4)c(N(C)S(C)(=O)=O)cc2nn1-c1ccc(F)cc1 [Example 47, 5-(11-fluoro-5,6-dihydroindolo[1,2-h][1,7]naphthyridin-2-yl)-2-(4-fluorophenyl)-N-methyl-6-(N-methylmethylsulfonamido)-2H-indazole-3-carboxamide]	8.46 nM	14.5 nM	
CNC(=O)c1c(-c2ccc(F)cc2)oc2cc(N(C)S(C)(=O)=O)c(-c3cc4c(cn3)CC(C)(C)n3c-4cc4c(F)cccc43)cc12 [Example 64, 5-(11-fluoro-6,6-dimethyl-5,6-dihydroindolo[2,1-a][2,6]naphthyridin-2-yl)-2-(4-fluorophenyl)-N-methyl-6-(N-methylmethylsulfonamido)benzofuran-3-carboxamide]	9.09 nM	23.2 nM	
CNC(=O)c1c(-n2ccc(C)cc2=O)oc2cc(N(C)S(C)(=O)=O)c(-c3ccc4c(n3)-c3cc5c(F)cccc5n3CC4)cc12 [Example 32, 5-(11-fluoro-5,6-dihydroindolo[1,2-h][1,7]naphthyridin-2-yl)-N-methyl-2-(4-methyl-2-oxopyridin-1 (2H)-yl)-6-(N-methylmethylsulfonamido)benzofuran-3-carboxamide]	3.95 nM	10.6 nM	
CNC(=O)c1c(-c2ccc(F)cc2)oc2cc(N(C)S(C)(=O)=O)c(-c3ccc4c(n3)-c3cc5c(F)cccc5n3C(CN3CCC3)C4)cc12 (stereo not drawn) [Example 92]	2.55 nM	46.5 nM	
CNC(=O)c1c(-c2ccc(C(F)(F)F)cc2)oc2cc(N(C)S(C)(=O)=O)c(-c3ccc4c(n3)-c3cc5c(F)cccc5n3CC4)cc12 [Example 1, 5-(11-fluoro-5,6-dihydroindolo[1,2-h][1,7]naphthyridin-2-yl)-N-methyl-6-(N-methylmethylsulfonamido)-2-(4-(trifluoromethyl)phenyl)benzofuran-3-carboxamide]			IC50 (HCV genotype 1b replicon; genotype 1b replicon cells, 96 hours incubation, NS3/4A ELISA, read-out: 1b IC50): 4.67 nM; IC50 (HCV genotype 1a replicon; genotype 1a replicon cells, 96 hours incubation, NS3/4A ELISA, read-out: 1a IC50): 3.78 nM
CNC(=O)c1c(-c2ccc(C)nc2)oc2cc(N(C)S(C)(=O)=O)c(-c3ccc4c(n3)-c3cc5c(F)cccc5n3C(CCN3CC(F)C3)C4)cc12 (stereo not drawn) [Example 68]			IC50 (HCV genotype 1b replicon; [3]): 60.6 nM; IC50 (HCV genotype 1a replicon; [4]): 70.9 nM
CNC(=O)c1c(-c2ccc(F)cc2)oc2cc(N(C)S(C)(=O)=O)c(-c3ccc4ccn5c6cccc(C#N)c6cc5c4n3)cc12 [Example 83]	3.44 nM	1.49 nM	
CNC(=O)c1c(-c2ccc(F)cc2)oc2cc(N(C)S(C)(=O)=O)c(-c3cc4c(nn3)CCn3c-4cc4c(F)cccc43)cc12 [Example 48, 5-(11-fluoro-5,6-dihydropyridazino[4′,3′:3,4]pyrido[1,2-a]indol-2-yl)-2-(4-fluorophenyl)-N-methyl-6-(N-methylmethylsulfonamido)benzofuran-3-carboxamide]	2.64 nM	1.72 nM	
CNC(=O)c1c(-c2ccc(F)cc2)oc2cc(N(C)S(C)(=O)=O)c(-c3ccc4c(n3)-c3cc5c(F)cccc5n3C(CN3CC[C@@H](F)C3)C4)cc12 (stereo partly drawn) [Example 94]	10.8 nM	34 nM	
CNC(=O)c1c(-c2ccc(F)cc2F)oc2cc(N(C)S(C)(=O)=O)c(-c3ccc4ccn5c6cccc(F)c6cc5c4n3)cc12 [Example 84]	6.41 nM	4.28 nM	
CNC(=O)c1c(-c2ccc(F)cc2)oc2cc(N(C)S(C)(=O)=O)c(-c3ccc4ccn5c6ccc(O)nc6cc5c4n3)cc12 [Example 81]	33.9 nM	196 nM	
CNC(=O)c1c(C2CC2)oc2cc(N(C)S(C)(=O)=O)c(-c3ccc4c(n3)-c3cc5c(F)cccc5n3CC4)cc12 [Example 16]	14.6 nM	27 nM	
CNC(=O)c1c(-c2ccc(F)cc2)oc2cc(N(C)S(C)(=O)=O)c(-c3ccc4c(n3)-c3cc5c(F)cccc5n3CC4C)cc12 (stereo not drawn) [Example 62]	2.55 nM	2.69 nM	
CNC(=O)c1c(-c2ccc(C3CC3)nc2)oc2cc(N(C)S(C)(=O)=O)c(-c3ccc4c(n3)-c3cc5c(F)cccc5n3CC4)cc12 [Example 6]	10.2 nM	16.8 nM	
CNC(=O)c1c(-c2cnc(C)s2)oc2cc(N(C)S(C)(=O)=O)c(-c3ccc4c(n3)-c3cc5c(F)cccc5n3CC4)cc12 [Example 36, 5-(11-fluoro-5,6-dihydroindolo[1,2-h][1,7]naphthyridin-2-yl)-N-methyl-6-(N-methylmethylsulfonamido)-2-(2-methylthiazol-5-yl)benzofuran-3-carboxamide]	10.2 nM	10.3 nM	
CCn1cc(-c2oc3cc(N(C)S(C)(=O)=O)c(-c4ccc5c(n4)-c4cc6c(F)cccc6n4CC5)cc3c2C(=O)NC)cn1 [Example 27]	11.1 nM	9.13 nM	
